# Measured values from patent publication US20260294995A1, “COMPOSITION FOR ORAL USE WITH HMG-COA REDUCTASE ENZYME INHIBITING ACTIVITY” (DIFASS INTERNATIONAL S.P.A., priority 2023, published 2026).
# Experiments:
# [1] = target: T1, HMG-CoA reductase (Homo sapiens, UniProt P04035); assay: HMG-CoA reductase inhibition, spectrophotometric (absorbance at 340 nm, oxidation of NADPH); type: biochemical; settings: for Percentage inhibition HMGR: positive control
# T1 construct: oxidation of NADPH by the catalytic subunit of HMG-CoA reductase; purchased
# T1 sequence (P04035 426-888 limits assumed): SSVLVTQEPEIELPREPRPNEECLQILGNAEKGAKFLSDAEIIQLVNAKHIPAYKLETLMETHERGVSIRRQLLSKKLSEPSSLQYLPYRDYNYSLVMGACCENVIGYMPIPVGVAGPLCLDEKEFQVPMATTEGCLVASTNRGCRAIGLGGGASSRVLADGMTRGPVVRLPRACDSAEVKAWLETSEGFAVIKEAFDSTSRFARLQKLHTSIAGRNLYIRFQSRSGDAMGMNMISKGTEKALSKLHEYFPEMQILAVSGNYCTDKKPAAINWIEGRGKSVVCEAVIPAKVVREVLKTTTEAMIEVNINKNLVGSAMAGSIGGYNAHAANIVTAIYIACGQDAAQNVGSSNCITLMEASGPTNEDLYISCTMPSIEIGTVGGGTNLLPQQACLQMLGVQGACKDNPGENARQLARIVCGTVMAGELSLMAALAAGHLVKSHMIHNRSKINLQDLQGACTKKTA
# Experimental: The screening was performed with an analysis kit that evaluates inhibition of HMG-CoA reductase. The assay was based on spectrophotometric measurement of the reduction of absorbance at 340 nm, which represents oxidation of NADPH by the catalytic subunit of HMG-CoA reductase in the presence of the HMG-COA substrate. The reaction is as follows: HMG-CoA+2NADPH+2H^+ ? mevalonate+2NADP^++CoA-SH. Modulation of the activity of the enzyme, and in particular its inhibition, was calculated as % variation relative to the activity measured under the control condition, i.e. in the absence of any inhibitor. The biochemical system was verified with the use of a positive control, pravastatin, at the doses of 212.5 mg (100 mM), 80 mg, 40 mg and 20 mg.
# A first test session was conducted with pravastatin as positive control at the theoretical concentration calculated as administration dose in the systemic circulation (5 L, mean blood volume of an adult weighing about 70 kg);
# Each test was conducted in triplicate, and the compounds were tested at different concentrations. […]
# [2] = 250 mg daily for three months, patients with metabolic syndrome; cited from earlier work
# [3] = 2022 meta-analysis; dose an essential factor; cited from earlier work
# [4] = oral doses from 100 mg to 2800 mg; cited from earlier work
# [5] = target: T2, HMG-CoA reductase (Homo sapiens, UniProt P04035); settings: 10 μg/mL; compared with pravastatin; cited from earlier work
# T2 sequence (P04035 1-888): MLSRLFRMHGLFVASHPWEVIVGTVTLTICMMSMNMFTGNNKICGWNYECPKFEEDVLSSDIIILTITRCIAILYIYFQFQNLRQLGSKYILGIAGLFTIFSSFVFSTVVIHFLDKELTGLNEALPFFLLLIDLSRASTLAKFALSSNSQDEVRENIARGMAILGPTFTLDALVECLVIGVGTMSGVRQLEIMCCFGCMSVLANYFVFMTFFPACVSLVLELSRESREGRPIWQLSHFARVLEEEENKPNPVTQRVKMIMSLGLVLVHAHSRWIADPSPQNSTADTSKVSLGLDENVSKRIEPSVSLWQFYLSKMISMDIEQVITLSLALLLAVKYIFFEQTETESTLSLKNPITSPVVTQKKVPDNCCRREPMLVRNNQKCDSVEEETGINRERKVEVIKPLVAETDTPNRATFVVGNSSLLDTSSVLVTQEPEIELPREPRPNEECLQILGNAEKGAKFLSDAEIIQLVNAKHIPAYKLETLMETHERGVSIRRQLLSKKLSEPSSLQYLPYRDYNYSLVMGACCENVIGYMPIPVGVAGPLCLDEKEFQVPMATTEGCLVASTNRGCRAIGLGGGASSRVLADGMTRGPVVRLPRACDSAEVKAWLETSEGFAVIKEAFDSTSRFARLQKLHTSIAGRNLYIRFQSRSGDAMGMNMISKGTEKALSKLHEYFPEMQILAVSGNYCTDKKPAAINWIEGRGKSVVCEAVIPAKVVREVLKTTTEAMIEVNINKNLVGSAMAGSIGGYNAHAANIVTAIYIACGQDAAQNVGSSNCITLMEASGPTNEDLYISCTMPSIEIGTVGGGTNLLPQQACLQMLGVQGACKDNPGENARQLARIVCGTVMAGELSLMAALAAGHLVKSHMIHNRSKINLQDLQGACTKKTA
# [6] = target: T3, HMG-CoA reductase (Rattus norvegicus, UniProt P51639); settings: 25 μM; glial cells; cited from earlier work
# T3 construct: in an in vitro model with glial cells; host or cells: C6 glioma cells (endogenous enzyme, inferred)
# T3 sequence (P51639 1-887): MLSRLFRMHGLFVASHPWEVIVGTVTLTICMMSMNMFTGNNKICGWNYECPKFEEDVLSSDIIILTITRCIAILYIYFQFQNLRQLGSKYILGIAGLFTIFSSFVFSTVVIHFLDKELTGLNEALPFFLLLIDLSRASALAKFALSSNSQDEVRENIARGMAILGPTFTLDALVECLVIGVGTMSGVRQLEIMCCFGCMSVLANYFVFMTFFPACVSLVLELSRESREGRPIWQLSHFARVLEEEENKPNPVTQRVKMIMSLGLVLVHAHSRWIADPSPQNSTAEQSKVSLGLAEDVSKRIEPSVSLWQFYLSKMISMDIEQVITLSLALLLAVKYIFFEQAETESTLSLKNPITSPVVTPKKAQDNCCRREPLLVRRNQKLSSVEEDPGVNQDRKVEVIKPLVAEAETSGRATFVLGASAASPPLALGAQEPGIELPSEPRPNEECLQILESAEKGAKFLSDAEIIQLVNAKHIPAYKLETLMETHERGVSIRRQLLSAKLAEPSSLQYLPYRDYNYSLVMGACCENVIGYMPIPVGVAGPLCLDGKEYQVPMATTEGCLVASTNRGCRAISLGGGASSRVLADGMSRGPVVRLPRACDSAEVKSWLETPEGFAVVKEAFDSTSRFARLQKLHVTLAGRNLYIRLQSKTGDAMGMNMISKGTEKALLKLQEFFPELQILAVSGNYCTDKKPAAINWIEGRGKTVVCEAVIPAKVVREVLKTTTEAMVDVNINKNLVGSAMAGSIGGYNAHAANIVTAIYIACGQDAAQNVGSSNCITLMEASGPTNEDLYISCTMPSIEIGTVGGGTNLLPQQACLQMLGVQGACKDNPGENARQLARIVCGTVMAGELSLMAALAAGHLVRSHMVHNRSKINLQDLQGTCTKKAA
# [7] = test system: HMG-COA reductase; settings: rat hepatocytes, in vitro; cited from earlier work
smiles,measurement,setting,value
"CC[C@H](C)C(=O)O[C@H]1C[C@H](O)C=C2C=C[C@H](C)[C@H](CC[C@@H](O)C[C@@H](O)CC(=O)O)[C@H]21 [Pravastatin, pravastatin]",Percentage inhibition HMGR,[1]; 20 mg (theoretical concentration of dose in 5 L blood),56.3%
same,Percentage inhibition HMGR,[1]; 40 mg (theoretical concentration of dose in 5 L blood),68.9%
same,Percentage inhibition HMGR,[1]; 80 mg (theoretical concentration of dose in 5 L blood),85.9%
"Oc1ccc(C=Cc2cc(O)cc(O)c2)cc1 [Resveratrol, resveratrol]",inhibition at 0.0102 µg/mL,"[1]; Test 1, 0.0102 μg/ml, 1:200 dilution, oral dose 10 mg, read-out: Percentage inhibition HMGR",0%
same,total cholesterol level,[2],reduces the total cholesterol level
same,total cholesterol and LDL cholesterol levels,[3],can be useful to reduce total cholesterol and LDL cholesterol levels
O=C(O)[C@H]1O[C@@H](Oc2cc3oc(-c4ccccc4)cc(=O)c3c(O)c2O)[C@H](O)[C@@H](O)[C@@H]1O [baicalin],proportionality in absorption depending on the oral dose,[4],did not indicate a proportionality in absorption
same,HMG-COA reductase inhibitory activity,[5],lower than with pravastatin
OCCc1ccc(O)c(O)c1 [hydroxytyrosol],reduction of HMG-COA reductase activity,[6],16%
same,synthesis of fatty acids and cholesterol,[6],downregulating effect
C/C=C1/[C@H](O[C@@H]2O[C@H](CO)[C@@H](O)[C@H](O)[C@H]2O)OC=C(C(=O)OC)[C@H]1CC(=O)OCCc1ccc(O)c(O)c1 [oleuropein],activity of HMG-COA reductase,[7],reduces the activity of hydroxymethylglutaryl-CoA reductase
same,cholesterol synthesis,[7],reduction in cholesterol synthesis
